# Measured values as given in US20190314382A1, “COMPOUNDS AND PHARMACEUTICAL COMPOSITIONS THEREOF FOR THE TREATMENT OF INFLAMMATORY DISEASES” (Galapagos NV, priority 2016, published 2019).
# How the values were obtained:
# Format in all cases: in vivo, human
# Settings in all cases: observed case
# IL-23 = assay: Biomarker study in RA subjects: serum IL-23, Luminex 18-Plex
# Experimental: (§1) Double-blind, placebo-controlled add on study in subjects with moderately to severely active RA who have an inadequate response to MTX (oral or parenteral).
# (§2) 595 subjects randomized to one of 6 dose regimens of Compound 1 (dosed as a [Compound 1:HCl:3H2O]) (3 dose levels administered either once or twice daily) or placebo on top of each subject's stable dose of MTX.
# (§3) Compound 1 (dosed as a [Compound 1:HCl:3H2O]) is dosed for twelve weeks once daily (q.d.) (50 mg, 100 mg or 200 mg) or twice daily (b.i.d.) (25 mg, 50 mg or 100 mg); or placebo.
# (§4) 18 parameters from human serum samples (GM-CSF, IFNγ, IL-1β, IL-2, IL-4, IL-5, IL-6, IL-7, IL-8, IL-10, IL-12 (p70), IL-13, IL-17A, IL-21, IL-23, MIP-1α, MIP-1β and TNF-α) are analyzed on a Luminex Plateform (BioPlex® L200) using a Luminex 18-Plex Kit (Millipore: HSTCMAG-28SK).
# (§5) Coupled beads react with the sample containing the biomarker of interest. […] Phycoerythrin (PE) serves as a fluorescent indicator.
# (§6) The concentration of bead bound analyte is proportional to the MFI (Median Fluorescent Intensity) and back-calculated from interpolation with the calibration curve fitted with a 4 or 5 parameters logistic (4PL or 5PL) regression model selected during method pre-validation.
# (§7) Treatment effect was assessed using an ANCOVA model on the changes from baseline, with factors: treatment, baseline value of the PD marker, geographical region and previous use of biologics.
# IL-13 = assay: Biomarker study in RA subjects: serum IL-13, Luminex 18-Plex
# Experimental: as §1, §2, §3, §4, §5, §6, §7
# IL-4 = assay: Biomarker study in RA subjects: serum IL-4, Luminex 18-Plex
# Experimental: as §1, §2, §3, §4, §5, §6, §7
# MIP-1β = assay: Biomarker study in RA subjects: serum MIP-1β, Luminex 18-Plex
# Experimental: as §1, §2, §3, §4, §5, §6, §7
# IFNγ = assay: Biomarker study in RA subjects: serum IFNγ, Luminex 18-Plex
# Experimental: as §1, §2, §3, §4, §5, §6, §7
# IL-10 = assay: Biomarker study in RA subjects: serum IL-10, Luminex 18-Plex
# Experimental: as §1, §2, §3, §4, §5, §6, §7
# IL-6 = assay: Biomarker study in RA subjects: serum IL-6, Luminex 18-Plex
# Experimental: as §1, §2, §3, §4, §5, §6, §7
# [1] = 100 mg bid, Week 12, N = 79, RA subjects on MTX
# [2] = 100 mg qd, Week 4, N = 68, RA subjects on MTX
# [3] = 100 mg qd, Week 12, N = 68, RA subjects on MTX
# [4] = 200 mg qd, Week 4, N = 75, RA subjects on MTX
# [5] = 200 mg qd, Week 12, N = 75, RA subjects on MTX
# [6] = 50 mg bid, Week 4, N = 73, RA subjects on MTX
# [7] = 50 mg bid, Week 12, N = 73, RA subjects on MTX
# [8] = 100 mg bid, Week 4, N = 79, RA subjects on MTX
smiles,measurement,setting,value
"O=C(Nc1nc2cccc(-c3ccc(CN4CCS(=O)(=O)CC4)cc3)n2n1)C1CC1 [Compound 1, cyclopropanecarboxylic acid {5-[4-(1,1-dioxo-thiomorpholin-4-ylmethyl)-phenyl]-[1,2,4]triazolo[1,5-a]pyridin-2yl}-amide]",IL-23 Mean change from baseline at Week 12,IL-23; [1],-831.6 pg/mL
same,IL-23 Mean change from baseline at Week 4,IL-23; [2],38.3 pg/mL
same,IL-23 Mean change from baseline at Week 12,IL-23; [3],-337.9 pg/mL
same,IL-23 Mean change from baseline at Week 4,IL-23; [4],-435.8 pg/mL
same,IL-23 Mean change from baseline at Week 12,IL-23; [5],-949.7 pg/mL
same,IL-13 Mean change from baseline at Week 4,IL-13; [6],-0.6 pg/mL
same,IL-13 Mean change from baseline at Week 12,IL-13; [7],-1.1 pg/mL
same,IL-13 Mean change from baseline at Week 4,IL-13; [8],-1.5 pg/mL
same,IL-13 Mean change from baseline at Week 12,IL-13; [1],-2.9 pg/mL
same,IL-13 Mean change from baseline at Week 4,IL-13; [2],-0.6 pg/mL
same,IL-13 Mean change from baseline at Week 12,IL-13; [3],-1.5 pg/mL
same,IL-13 Mean change from baseline at Week 4,IL-13; [4],-0.9 pg/mL
same,IL-13 Mean change from baseline at Week 12,IL-13; [5],-2.2 pg/mL
same,IL-4 Mean change from baseline at Week 4,IL-4; [6],-0.3 pg/mL
same,IL-4 Mean change from baseline at Week 12,IL-4; [7],-2.1 pg/mL
same,IL-4 Mean change from baseline at Week 4,IL-4; [8],-2.7 pg/mL
same,IL-4 Mean change from baseline at Week 12,IL-4; [1],-2.7 pg/mL
same,IL-4 Mean change from baseline at Week 4,IL-4; [2],0.8 pg/mL
same,IL-4 Mean change from baseline at Week 12,IL-4; [3],-1.6 pg/mL
same,IL-4 Mean change from baseline at Week 4,IL-4; [4],0.2 pg/mL
same,IL-4 Mean change from baseline at Week 12,IL-4; [5],-2.5 pg/mL
same,MIP-1β Mean change from baseline at Week 4,MIP-1β; [6],0.4 pg/mL
same,MIP-1β Mean change from baseline at Week 12,MIP-1β; [7],-1.1 pg/mL
same,MIP-1β Mean change from baseline at Week 4,MIP-1β; [8],-2.1 pg/mL
same,MIP-1β Mean change from baseline at Week 12,MIP-1β; [1],-1.3 pg/mL
same,MIP-1β Mean change from baseline at Week 4,MIP-1β; [2],-0.7 pg/mL
same,MIP-1β Mean change from baseline at Week 12,MIP-1β; [3],-1.7 pg/mL
same,MIP-1β Mean change from baseline at Week 4,MIP-1β; [4],-1.6 pg/mL
same,MIP-1β Mean change from baseline at Week 12,MIP-1β; [5],-1.5 pg/mL
same,IFNγ Mean change from baseline at Week 4,IFNγ; [6],1.6 pg/mL
same,IFNγ Mean change from baseline at Week 12,IFNγ; [7],-3.4 pg/mL
same,IFNγ Mean change from baseline at Week 4,IFNγ; [8],-3.3 pg/mL
same,IFNγ Mean change from baseline at Week 12,IFNγ; [1],-5.8 pg/mL
same,IFNγ Mean change from baseline at Week 4,IFNγ; [2],-3.8 pg/mL
same,IFNγ Mean change from baseline at Week 12,IFNγ; [3],-6.6 pg/mL
same,IFNγ Mean change from baseline at Week 4,IFNγ; [4],0.5 pg/mL
same,IFNγ Mean change from baseline at Week 12,IFNγ; [5],-3.1 pg/mL
same,IL-10 Mean change from baseline at Week 4,IL-10; [6],-2.1 pg/mL
same,IL-10 Mean change from baseline at Week 12,IL-10; [7],-3.7 pg/mL
same,IL-10 Mean change from baseline at Week 4,IL-10; [8],-3.3 pg/mL
same,IL-10 Mean change from baseline at Week 12,IL-10; [1],-4.2 pg/mL
same,IL-10 Mean change from baseline at Week 4,IL-10; [2],0.1 pg/mL
same,IL-10 Mean change from baseline at Week 12,IL-10; [3],-0.1 pg/mL
same,IL-10 Mean change from baseline at Week 4,IL-10; [4],-0.5 pg/mL
same,IL-10 Mean change from baseline at Week 12,IL-10; [5],-1.5 pg/mL
same,IL-6 Mean change from baseline at Week 4,IL-6; [6],-4.2 pg/mL
same,IL-6 Mean change from baseline at Week 12,IL-6; [7],-6.0 pg/mL
same,IL-6 Mean change from baseline at Week 4,IL-6; [8],-11.0 pg/mL
same,IL-6 Mean change from baseline at Week 12,IL-6; [1],-14.1 pg/mL
same,IL-6 Mean change from baseline at Week 4,IL-6; [2],-7.0 pg/mL
same,IL-6 Mean change from baseline at Week 12,IL-6; [3],-8.0 pg/mL
same,IL-6 Mean change from baseline at Week 4,IL-6; [4],-9.6 pg/mL
same,IL-6 Mean change from baseline at Week 12,IL-6; [5],-11.2 pg/mL
